Measured values reported in patent US8927500B2, “Peptidomimetic macrocycles” (Aileron Therapeutics, Inc., priority 2012, dated 2015).
Read-outs that look alike come from different tables or passages of the source. Where a SMILES comes first, the peptide text is derived from it. Bridges are numbered along the chain shown (N, C = ends). [ ]: non-standard residue; d: D form. The star is where a group is joined. 5TAMRA = CN(C)c1ccc2c(c1)Oc1cc(N(C)C)ccc1C21OC(=O)c2cc(C(=O)*)ccc21; Phe(4-guanidino) = N=C(N)Nc1ccc(C[C@H](N)C(=O)O)cc1; pY = N[C@@H](Cc1ccc(OP(=O)(O)O)cc1)C(=O)O; Gla = N[C@@H](CC(C(=O)O)C(=O)O)C(=O)O; Benzoyl(4-F) = O=C(c1ccc(F)cc1)*; R8 = C=CCCCCCC[C@@](C)(N)C(=O)O; Cit = NC(=O)NCCC[C@H](N)C(=O)O; Cba = N[C@@H](CC1CCC1)C(=O)O; S5 = C=CCCC[C@](C)(N)C(=O)O; Aib = CC(C)(N)C(=O)O; βAla = NCCC(=O)O

How the values were obtained:
MDM2 = MDM2 (Homo sapiens, UniProt Q00987); test: Competitive fluorescence polarization assay for MDM2; type: binding; conditions: competitive FP assay, MDM2
MDM2, sequence (Q00987 1-125): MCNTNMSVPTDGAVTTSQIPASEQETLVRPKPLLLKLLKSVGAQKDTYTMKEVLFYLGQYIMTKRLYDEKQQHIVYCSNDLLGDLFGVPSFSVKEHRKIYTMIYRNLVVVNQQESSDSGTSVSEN

MDMX = target: T1, MDMX (Homo sapiens, UniProt O15151); test: Competitive fluorescence polarization assay for MDMX; type: binding; conditions: competitive FP assay
T1 sequence (O15151 1-125): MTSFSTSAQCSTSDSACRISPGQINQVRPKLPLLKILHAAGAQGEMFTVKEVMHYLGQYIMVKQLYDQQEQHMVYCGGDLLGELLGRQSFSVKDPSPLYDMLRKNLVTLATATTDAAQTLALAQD
Method: Dilute MDMX (In-house, 40 kD) into FP buffer (High salt buffer-200 mM Nacl, 5 mM CHAPS, pH 7.5.) to make 300 nM (2×) working stock solution. • 2. […] Dilute 1 mM (in 100% DMSO) of FAM labeled linear peptide with DMSO to 100 μM (dilution 1:10). Then, dilute from 100 μM to 10 μM with water (dilution 1:10) and then dilute with FP buffer from 10 μM to 40 nM (dilution 1:250). This is the working solution which will be a 10 nM concentration in well (dilution 1:4). Keep the diluted FAM labeled peptide in the dark until use. • 4. […] Dilute 10 mM (in 100% DMSO) with DMSO to 5 mM (dilution 1:2). Then, dilute from 5 mM to 500 μM with H2O (dilution 1:10) and then dilute with FP buffer from 500 μM to 20 μM (dilution 1:25). […] Transfer 10 μl of serial diluted unlabeled peptides to each well which is filled with 20 μl of 300 nM of protein. • 7. Add 10 μl of 10 nM (4×) of FAM labeled peptide into each well and incubate for 3 hr to read.

| SMILES | Ki (MDM2; read-out: Ki (MDM2)) | Ki (MDMX; read-out: Ki (MDMX)) | Ki (MDM2; Ki (MDM2)) | Ki (MDMX; Ki (MDMX)) |
| --- | --- | --- | --- | --- |
| CC(=O)N[C@@H](CC(C)C)C(=O)N[C@H](C(=O)N[C@@H](Cc1ccccc1)C(=O)N[C@]1(C)CCCCCCC=CCCC[C@@](C)(C(=O)N[C@@H](C)C(=O)N[C@@H](C)C(=O)N[C@H](C)C(N)=O)NC(=O)[C@H](CC(C)C)NC(=O)[C@H](CCC(N)=O)NC(=O)[C@H](C)NC(=O)[C@H](Cc2c[nH]c3ccccc23)NC(=O)[C@H](Cc2ccc(O)cc2)NC(=O)[C@H](CCC(=O)O)NC1=O)[C@@H](C)O [compound 587] (Ac-LTF[R8]EYWAQL[S5]AA[dA]-NH2; staple 4-11) | < 10 nM | < 10 nM | – | – |
| CC(=O)N[C@@H](CC(C)C)C(=O)N[C@H](C(=O)N[C@@H](Cc1ccccc1)C(=O)N[C@]1(C)CCCCCCC=CCCC[C@@](C)(C(=O)N[C@@H](CO)C(=O)O)NC(=O)[C@H](CC2CCC2)NC(=O)[C@H](CCC(N)=O)NC(=O)[C@H](C)NC(=O)[C@H](Cc2c[nH]c3ccccc23)NC(=O)[C@H](Cc2ccc(O)cc2)NC(=O)[C@H](CCC(=O)O)NC1=O)[C@@H](C)O [compound 594] (Ac-LTF[R8]EYWAQ[Cba][S5]S-OH; staple 4-11) | < 10 nM | < 10 nM | – | – |
| CC(C)C[C@H](NC(=O)c1ccc(F)cc1)C(=O)N[C@H](C(=O)N[C@@H](Cc1ccccc1)C(=O)N[C@]1(C)CCCCCCC=CCCC[C@@](C)(C(=O)N[C@@H](C)C(=O)N[C@@H](C)C(=O)N[C@@H](C)C(=O)N[C@@H](C)C(=O)N[C@@H](C)C(=O)N[C@H](C)C(N)=O)NC(=O)[C@H](CC(C)C)NC(=O)[C@H](CCC(N)=O)NC(=O)[C@H](C)NC(=O)[C@H](Cc2c[nH]c3ccccc23)NC(=O)[C@H](Cc2ccc(O)cc2)NC(=O)[C@H](CCC(=O)O)NC1=O)[C@@H](C)O [compound 596] ({Benzoyl(4-F)}-LTF[R8]EYWAQL[S5]AAAAA[dA]-NH2; staple 4-11) | – | – | < 10 nM | 10 to 100 nM |
| CC(=O)N[C@@H](CC(C)C)C(=O)N[C@H](C(=O)N[C@@H](Cc1ccccc1)C(=O)N[C@]1(C)CCCCCCC=CCCC[C@@](C)(C(=O)N[C@@H](C)C(=O)N[C@@H](C)C(=O)N[C@@H](C)C(=O)N[C@@H](C)C(=O)N[C@@H](C)C(=O)N[C@H](C)C(N)=O)NC(=O)[C@H](CC(C)C)NC(=O)[C@H](CCC(N)=O)NC(=O)[C@H](C)NC(=O)[C@H](Cc2c[nH]c3ccccc23)NC(=O)[C@H](Cc2ccc(O)cc2)NC(=O)[C@H](CCCNC(=N)N)NC1=O)[C@@H](C)O [compound 598] (Ac-LTF[R8]RYWAQL[S5]AAAAA[dA]-NH2; staple 4-11) | – | – | < 10 nM | 10 to 100 nM |
| CC(=O)N[C@@H](CC(C)C)C(=O)N[C@H](C(=O)N[C@@H](Cc1ccccc1)C(=O)N[C@]1(C)CCCCCCC=CCCC[C@@](C)(C(=O)N[C@@H](C)C(=O)N[C@@H](C)C(=O)N[C@@H](C)C(=O)N[C@@H](C)C(=O)N[C@@H](C)C(=O)N[C@H](C)C(N)=O)NC(=O)[C@H](CC(C)C)NC(=O)[C@H](CCC(N)=O)NC(=O)[C@H](C)NC(=O)[C@H](Cc2c[nH]c3ccccc23)NC(=O)[C@H](Cc2ccc(O)cc2)NC(=O)[C@H](CCC(N)=O)NC1=O)[C@@H](C)O [compound 600] (Ac-LTF[R8]QYWAQL[S5]AAAAA[dA]-NH2; staple 4-11) | – | – | < 10 nM | < 10 nM |
| CC(=O)N[C@@H](CC(C)C)C(=O)N[C@H](C(=O)N[C@@H](Cc1ccccc1)C(=O)N[C@]1(C)CCCCCCC=CCCC[C@@](C)(C(=O)N[C@@H](C)C(=O)N[C@@H](C)C(=O)N[C@@H](C)C(=O)N[C@@H](C)C(=O)N[C@@H](C)C(=O)N[C@H](C)C(N)=O)NC(=O)[C@H](CC(C)C)NC(=O)[C@H](CCC(N)=O)NC(=O)[C@H](C)NC(=O)[C@H](Cc2c[nH]c3ccccc23)NC(=O)[C@H](Cc2ccc(O)cc2)NC(=O)[C@H](CC(C(=O)O)C(=O)O)NC1=O)[C@@H](C)O [compound 602] (Ac-LTF[R8][Gla]YWAQL[S5]AAAAA[dA]-NH2; staple 4-11) | – | – | < 10 nM | < 10 nM |
| CC(=O)N[C@@H](CC(C)C)C(=O)N[C@H](C(=O)N[C@@H](Cc1ccccc1)C(=O)N[C@]1(C)CCCCCCC=CCCC[C@@](C)(C(=O)N[C@@H](C)C(=O)N[C@@H](C)C(=O)N[C@@H](C)C(=O)N[C@@H](C)C(=O)N[C@@H](C)C(=O)N[C@H](C)C(N)=O)NC(=O)[C@H](CC(C)C)NC(=O)[C@H](CCC(N)=O)NC(=O)[C@H](C)NC(=O)[C@H](Cc2c[nH]c3ccccc23)NC(=O)[C@H](Cc2ccc(O)cc2)NC(=O)[C@H](Cc2ccc(NC(=N)N)cc2)NC1=O)[C@@H](C)O [compound 603] (Ac-LTF[R8][Phe(4-guanidino)]YWAQL[S5]AAAAA[dA]-NH2; staple 4-11) | – | – | < 10 nM | < 10 nM |
| CC(=O)N[C@@H](CC(C)C)C(=O)N[C@H](C(=O)N[C@@H](Cc1ccccc1)C(=O)N[C@]1(C)CCCCCCC=CCCC[C@@](C)(C(=O)N[C@@H](C)C(=O)N[C@@H](C)C(=O)N[C@@H](C)C(=O)N[C@@H](C)C(=O)N[C@@H](C)C(=O)N[C@H](C)C(N)=O)NC(=O)[C@H](CC(C)C)NC(=O)[C@H](CC(C)C)NC(=O)[C@H](C)NC(=O)[C@H](Cc2c[nH]c3ccccc23)NC(=O)[C@H](Cc2ccc(O)cc2)NC(=O)[C@H](CCC(=O)O)NC1=O)[C@@H](C)O [compound 608] (Ac-LTF[R8]EYWALL[S5]AAAAA[dA]-NH2; staple 4-11) | < 10 nM | 10 to 100 nM | – | – |
| CC(=O)N[C@@H](CC(C)C)C(=O)N[C@H](C(=O)N[C@@H](Cc1ccccc1)C(=O)N[C@]1(C)CCCCCCC=CCCC[C@@](C)(C(=O)N[C@@H](C)C(=O)N[C@@H](C)C(=O)N[C@@H](C)C(=O)N[C@@H](C)C(=O)N[C@@H](C)C(=O)N[C@H](C)C(N)=O)NC(=O)[C@H](CC(C)C)NC(=O)C(C)(C)NC(=O)[C@H](C)NC(=O)[C@H](Cc2c[nH]c3ccccc23)NC(=O)[C@H](Cc2ccc(O)cc2)NC(=O)[C@H](CCC(=O)O)NC1=O)[C@@H](C)O [compound 609] (Ac-LTF[R8]EYWA[Aib]L[S5]AAAAA[dA]-NH2; staple 4-11) | < 10 nM | 10 to 100 nM | – | – |
| CC(=O)N[C@@H](CC(C)C)C(=O)N[C@H](C(=O)N[C@@H](Cc1ccccc1)C(=O)N[C@]1(C)CCCCCCC=CCCC[C@@](C)(C(=O)N[C@@H](C)C(=O)N[C@@H](C)C(=O)N[C@@H](C)C(=O)N[C@@H](C)C(=O)N[C@@H](C)C(=O)N[C@H](C)C(N)=O)NC(=O)[C@H](CC(C)C)NC(=O)[C@H](CO)NC(=O)[C@H](C)NC(=O)[C@H](Cc2c[nH]c3ccccc23)NC(=O)[C@H](Cc2ccc(O)cc2)NC(=O)[C@H](CCC(=O)O)NC1=O)[C@@H](C)O [compound 610] (Ac-LTF[R8]EYWASL[S5]AAAAA[dA]-NH2; staple 4-11) | < 10 nM | 10 to 100 nM | – | – |
| CC(=O)N[C@@H](CC(C)C)C(=O)N[C@H](C(=O)N[C@@H](Cc1ccccc1)C(=O)N[C@]1(C)CCCCCCC=CCCC[C@@](C)(C(=O)N[C@@H](C)C(=O)N[C@@H](C)C(=O)N[C@@H](C)C(=O)N[C@@H](C)C(=O)N[C@@H](C)C(=O)N[C@H](C)C(N)=O)NC(=O)[C@H](CC(C)C)NC(=O)[C@H](CC(N)=O)NC(=O)[C@H](C)NC(=O)[C@H](Cc2c[nH]c3ccccc23)NC(=O)[C@H](Cc2ccc(O)cc2)NC(=O)[C@H](CCC(=O)O)NC1=O)[C@@H](C)O [compound 611] (Ac-LTF[R8]EYWANL[S5]AAAAA[dA]-NH2; staple 4-11) | < 10 nM | 10 to 100 nM | – | – |
| CC(=O)N[C@@H](CC(C)C)C(=O)N[C@H](C(=O)N[C@@H](Cc1ccccc1)C(=O)N[C@]1(C)CCCCCCC=CCCC[C@@](C)(C(=O)N[C@@H](C)C(=O)N[C@@H](C)C(=O)N[C@@H](C)C(=O)N[C@@H](C)C(=O)N[C@@H](C)C(=O)N[C@H](C)C(N)=O)NC(=O)[C@H](CC(C)C)NC(=O)[C@H](CCCNC(N)=O)NC(=O)[C@H](C)NC(=O)[C@H](Cc2c[nH]c3ccccc23)NC(=O)[C@H](Cc2ccc(O)cc2)NC(=O)[C@H](CCC(=O)O)NC1=O)[C@@H](C)O [compound 612] (Ac-LTF[R8]EYWA[Cit]L[S5]AAAAA[dA]-NH2; staple 4-11) | < 10 nM | 10 to 100 nM | – | – |
| CC(=O)N[C@@H](CC(C)C)C(=O)N[C@H](C(=O)N[C@@H](Cc1ccccc1)C(=O)N[C@]1(C)CCCCCCC=CCCC[C@@](C)(C(=O)N[C@@H](C)C(=O)N[C@@H](C)C(=O)N[C@@H](C)C(=O)N[C@@H](C)C(=O)N[C@@H](C)C(=O)N[C@H](C)C(N)=O)NC(=O)[C@H](CC(C)C)NC(=O)[C@H](Cc2c[nH]cn2)NC(=O)[C@H](C)NC(=O)[C@H](Cc2c[nH]c3ccccc23)NC(=O)[C@H](Cc2ccc(O)cc2)NC(=O)[C@H](CCC(=O)O)NC1=O)[C@@H](C)O [compound 613] (Ac-LTF[R8]EYWAHL[S5]AAAAA[dA]-NH2; staple 4-11) | < 10 nM | 10 to 100 nM | – | – |
| CC(=O)N[C@@H](CC(C)C)C(=O)N[C@H](C(=O)N[C@@H](Cc1ccccc1)C(=O)N[C@]1(C)CCCCCCC=CCCC[C@@](C)(C(=O)N[C@@H](C)C(=O)N[C@@H](C)C(=O)N[C@@H](C)C(=O)N[C@@H](C)C(=O)N[C@@H](C)C(=O)N[C@H](C)C(N)=O)NC(=O)[C@H](CC(C)C)NC(=O)[C@H](CCC(N)=O)NC(=O)[C@H](C)NC(=O)[C@H](Cc2c[nH]c3ccccc23)NC(=O)[C@H](Cc2ccc(OP(=O)(O)O)cc2)NC(=O)[C@H](CCC(=O)O)NC1=O)[C@@H](C)O [compound 615] (Ac-LTF[R8]E[pY]WAQL[S5]AAAAA[dA]-NH2; staple 4-11) | – | – | < 10 nM | < 10 nM |
| CC(C)C[C@H](NC(=O)CCNC(=O)c1ccc2c(c1)C(=O)OC21c2ccc(N(C)C)cc2Oc2cc(N(C)C)ccc21)C(=O)N[C@H](C(=O)N[C@@H](C)C(=O)N[C@]1(C)CCCCCCC=CCCC[C@@](C)(C(=O)N[C@@H](CO)C(=O)N[C@@H](C)C(=O)N[C@@H](C)C(N)=O)NC(=O)[C@H](CC2CCC2)NC(=O)[C@H](CCC(N)=O)NC(=O)[C@H](C)NC(=O)[C@H](Cc2c[nH]c3ccccc23)NC(=O)[C@H](Cc2ccc(O)cc2)NC(=O)[C@H](CCC(=O)O)NC1=O)[C@@H](C)O [compound 687] ({5TAMRA-βAla}-LTA[R8]EYWAQ[Cba][S5]SAA-NH2; staple 4-11) | 100 to 1000 nM | 100 to 1000 nM | – | – |
